# pIC50: −log10 of the molar value.
# Molecular target: T1, recombinant human cGAS (aa147-522) (Homo sapiens, UniProt Q8N884)
# T1 construct: recombinant human cGAS (aa147-522); His6-SUMO (cleaved yes); made in house; host or cells: E. coli BL21/pLys
# Assay: In vitro inhibition assay of cGAS activity (ATP consumption, KinaseGlo Max)
# Assay type: biochemical
# Conditions: Table 2, read-out: cGAS Inhibition Results IC50
# Description: Expression and Purification of Recombinant cGAS Protein: cDNA encoding full-length or amino acids […] of human cGAS was inserted into a modified pET28a vector containing an in-frame His6-SUMO tag. The E. coli strain BL21/pLys harboring the plasmid was induced with 0.5 mM IPTG at 18° C. overnight. His6-SUMO tag was removed by a SUMO protease digestion following purification of the His6-SUMO-cGAS as described previously (Sun et al, 2013, Science 339, 786).
# In vitro inhibition assay of cGAS activity: A 60 μL mixture containing 20 mM Tris-Cl, pH 7.5, 5 mM MgCl2, 0.2 mg/mL BSA, 0.01 mg/mL Herring testis DNA, 6.6 μM ATP, 0.1 mM GTP, 1.5 μg/mL of recombinant human cGAS (aa147-522) and serial dilutions of a test compound in DMSO was added to a 96-well plate and incubated at 37° C. for 20 minutes. At the end of reaction, 40 μL of KinaseGlo Max (Promega) was added and chemiluminescence was measured with a luminometer. Inhibitory effect of a compound is evaluated by plotting percentage of ATP consumption against logarithm of compound concentrations. IC50 value was calculated using GraphPad Prism 8 (GraphPad Software, Inc.).
# The letter codes for cGAS IC50 include: A (<2 μM); B (2-30 μM); C (>30 μM).
# T1 sequence (Q8N884 147-522): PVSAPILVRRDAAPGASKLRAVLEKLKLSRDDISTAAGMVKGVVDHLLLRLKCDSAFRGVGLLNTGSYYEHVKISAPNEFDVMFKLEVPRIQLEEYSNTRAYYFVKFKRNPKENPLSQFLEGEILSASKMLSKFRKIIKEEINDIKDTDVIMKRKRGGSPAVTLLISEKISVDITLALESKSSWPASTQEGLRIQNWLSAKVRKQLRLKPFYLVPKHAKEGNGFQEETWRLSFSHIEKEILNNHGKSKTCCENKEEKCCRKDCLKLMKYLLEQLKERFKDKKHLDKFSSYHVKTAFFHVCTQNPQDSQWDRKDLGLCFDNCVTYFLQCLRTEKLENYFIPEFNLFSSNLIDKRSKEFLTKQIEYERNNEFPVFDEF
row,SMILES,pIC50
1,"CS(=O)(=O)N(CCCc1cc(-c2cn[nH]c2)c2ccc(Cl)c(Cl)c2n1)CC(=O)O [I-337, N-(3-(7,8-dichloro-4-(1H-pyrazol-4-yl)quinolin-2-yl)propyl)-N-(methylsulfonyl) glycine]",> 5.70
2,O=S(=O)(O)CNc1cc(-n2ccnc2)c2ccc(Cl)c(Cl)c2n1 [I-157],4.52 to 5.70
3,O=S1(=O)CCN(c2cc(-n3ccnc3)c3ccc(Cl)c(Cl)c3n2)CC1 [I-87],4.52 to 5.70
4,O=C1CC(Nc2cc(-n3ccnc3)c3ccc(Cl)cc3n2)CCN1 (stereo not shown) [I-365],< 4.52
5,Cc1cc(-c2ccn[nH]2)c2ccc(Cl)c(Cl)c2n1 [I-407],< 4.52
6,COc1ccccc1-c1cc(-n2ccnc2)c2ccc(Br)cc2n1 [I-381],< 4.52
7,COc1c(-c2ccccc2)ccc2c(-n3ccnc3)cc(-c3ccccc3)nc12 [I-51],< 4.52
8,O=C(O)CNc1cc(-c2ccn[nH]2)nc2c(Cl)c(Cl)ccc12 [I-426],< 4.52
9,"O=P(O)(O)OC1CCCN(c2cc(-n3ccnc3)c3ccc(Cl)c(Cl)c3n2)C1 (stereo not shown) [I-112, 1-(7,8-dichloro-4-(1H-imidazol-1-yl)quinolin-2-yl)piperidin-3-yl dihydrogen phosphate]",> 5.70
10,Brc1ccc2c(-n3ccnn3)ccnc2c1 [I-420],< 4.52
11,O=C(O)[C@H]1CN(c2cc(-c3cn[nH]c3)c3ccc(Cl)c(Cl)c3n2)CCO1 [I-328],> 5.70
12,O=C(O)Cc1ccccc1-c1cc(-n2ccnc2)c2ccc(Cl)cc2n1 [I-14],< 4.52
13,OCC(CO)Nc1cc(-n2ccnc2)c2ccc(Cl)c(Cl)c2n1 [I-249],> 5.70
14,C[C@H](CC(=O)O)Nc1cc(-n2ccnc2)c2ccc(Cl)c(Cl)c2n1 [I-185],4.52 to 5.70
15,CN(CCN1CCOCC1)c1cc(-c2cn[nH]c2)c2ccc(Cl)c(Cl)c2n1 [I-214],4.52 to 5.70
16,Clc1ccc2c(-c3ccncc3)cc(-c3ccccc3)nc2c1 [I-70],< 4.52
17,O=C(O)CNC(=O)[C@@H]1CCCN1c1cc(-n2ccnc2)c2ccc(Cl)c(Cl)c2n1 [I-323],> 5.70
18,"O=C1NC(=O)/C(=C\CCc2cc(-c3cn[nH]c3)c3ccc(Cl)c(Cl)c3n2)S1 [I-274, (E)-5-(3-(7,8-Dichloro-4-(1H-pyrazol-4-yl)quinolin-2-yl)propylidene)thiazolidine-2,4-dione]",4.52 to 5.70
19,O=C(O)c1ccccc1Oc1cc(-n2ccnc2)c2ccc(Cl)cc2n1 [I-283],< 4.52

row,SMILES,pIC50
1,O=c1[nH]c(=O)c2ccc(S(=O)(=O)NC[C@@H]3CCCN3c3cc(-n4ccnc4)c4ccc(Cl)c(Cl)c4n3)cc2[nH]1 [I-392],4.52 to 5.70
2,O=C(O)[C@H]1CCCN(c2cc(-n3ccnc3)c3ccc(Cl)cc3n2)C1 [I-331],4.52 to 5.70
3,CCNC(=O)[C@@H]1CCCN1c1cc(-n2ccnc2)c2ccc(Cl)c(Cl)c2n1 [I-451],4.52 to 5.70
4,Clc1ccc2c(-c3cn[nH]c3)cc(NCCN3CCOCC3)nc2c1Cl [I-213],4.52 to 5.70
5,COC(=O)C1CCN(c2cc(-n3ccnc3)c3ccc(Cl)cc3n2)CC1 [I-131],4.52 to 5.70
6,O=C(O)CCS(=O)(=O)NC[C@@H]1CCCN1c1cc(-n2ccnc2)c2ccc(Cl)c(Cl)c2n1 [I-335],> 5.70
7,CN(CCO)c1cc(-c2cn[nH]c2)c2ccc(Cl)c(Cl)c2n1 [I-240],> 5.70
8,"O=P(O)(O)Cc1cc(-n2ccnc2)c2ccc(Cl)c(Cl)c2n1 [I-251, ((7,8-dichloro-4-(1H-imidazol-1-yl)quinolin-2-yl)methyl)phosphonic acid]",< 4.52
9,CC(C)c1ccc2c(-c3cn[nH]c3)cc(NCCS(N)(=O)=O)nc2c1 [I-269],< 4.52
10,"O=C(O)CN(CCN1CCOCC1)c1cc(-n2ccnc2)c2ccc(Cl)c(Cl)c2n1 [I-172, N-(7,8-dichloro-4-(1H-imidazol-1-yl)quinoline-2-yl)-N-(2-morpholinoethyl)glycine]",4.52 to 5.70
11,Brc1ccc2c(-n3ccnc3)cc(-c3ccncc3)nc2c1 [I-383],< 4.52
12,Clc1ccc2c(-n3ccnc3)cc(NCCN3CCOCC3)nc2c1Cl [I-215],4.52 to 5.70
13,O=C(O)C1CCN(c2cc(-n3ccnc3)c3ccc(Cl)cc3n2)CC1 [I-127],4.52 to 5.70
14,O=C(O)CN(Cc1ccncc1)c1cc(-n2ccnc2)c2ccc(Cl)c(Cl)c2n1 [I-176],4.52 to 5.70
15,COC(=O)CCS(=O)(=O)NC[C@@H]1CCCN1c1cc(-n2ccnc2)c2ccc(Cl)c(Cl)c2n1 [I-390],4.52 to 5.70
16,c1ccc2c(-n3cccn3)ccnc2c1 [I-413],< 4.52
17,O=C(O)[C@@H]1C[C@@H](F)CN1c1cc(-c2cn[nH]c2)c2ccc(Cl)c(Cl)c2n1 [I-430],> 5.70
18,O=C(O)[C@@H]1COCCN1c1cc(-c2cn[nH]c2)c2ccc(Cl)c(Cl)c2n1 [I-93],> 5.70

# Same assay, conditions: Table 3, read-out: cGAS Inhibition Results IC50
row,SMILES,pIC50
1,C[C@@H](NC(=O)CCN(C)c1cc(-n2ccnc2)c2ccc(Cl)c(Cl)c2n1)C(=O)O [I-563],> 5.70
2,O=C(O)C12CC1CCN2c1cc(-n2ccnc2)c2ccc(Cl)c(Cl)c2n1 (stereo not shown) [I-505],4.52 to 5.70
3,CN(CCC(=O)N1CCC(S(N)(=O)=O)C1)c1cc(-n2ccnc2)c2ccc(Cl)c(Cl)c2n1 (stereo not shown) [I-566],> 5.70
4,O=C(O)[C@@H]1C[C@H](OC(=O)N2CCOCC2)CN1c1cc(-n2ccnc2)c2ccc(Cl)c(Cl)c2n1 [I-571],> 5.70
5,O=C(O)CO[C@@H]1CCN(c2cc(-n3ccnc3)c3ccc(Cl)c(Cl)c3n2)[C@@H]1C(=O)O [I-561],> 5.70
6,O=C(C[C@@H]1CCCN1c1cc(-n2ccnc2)c2ccc(Cl)c(Cl)c2n1)NC1CCNC1=O (stereo partly shown) [I-541],> 5.70
7,O=C(O)C1CCCCN1C(=O)[C@@H]1CCCN1c1cc(-n2ccnc2)c2ccc(Cl)c(Cl)c2n1 (stereo partly shown) [I-547],4.52 to 5.70
8,O=C(O)Cc1ccc(OC[C@@H]2CCCN2c2cc(-n3ccnc3)c3ccc(Cl)c(Cl)c3n2)cc1 [I-738],> 5.70
9,CN(CCS(=O)(=O)N1CCCC1C(=O)O)c1cc(-n2ccnc2)c2ccc(Cl)c(Cl)c2n1 (stereo not shown) [I-626],> 5.70
10,CN(CCNC(=O)c1cccc(O)c1)c1cc(-n2ccnc2)c2ccc(Cl)c(Cl)c2n1 [I-619],4.52 to 5.70
11,CC(C)(O)[C@@H]1CCCN1c1cc(-n2ccnc2)c2ccc(Cl)c(Cl)c2n1 [I-484],4.52 to 5.70
12,CC(C)(NC(=O)C[C@@H]1CCCN1c1cc(-n2ccnc2)c2ccc(Cl)c(Cl)c2n1)C(=O)O [I-527],> 5.70
13,CN(CCNS(=O)(=O)CC(=O)O)c1cc(-n2ccnc2)c2ccc(Cl)c(Cl)c2n1 [I-618],> 5.70
14,O=C(O)CCO[C@@H]1CCN(c2cc(-n3ccnc3)c3ccc(Cl)c(Cl)c3n2)C1 [I-767],4.52 to 5.70
15,CC(C)[C@H](NC(=O)C[C@@H]1CCCN1c1cc(-n2ccnc2)c2ccc(Cl)c(Cl)c2n1)C(=O)O [I-526],> 5.70
16,COC(=O)c1ccc(S(=O)(=O)NCCN(C)c2cc(-n3ccnc3)c3ccc(Cl)c(Cl)c3n2)cc1 [I-611],< 4.52
17,CC(C)COC(=O)[C@@H]1[C@@H](O)CCN1c1cc(-n2ccnc2)c2ccc(Cl)c(Cl)c2n1 [I-602],4.52 to 5.70
18,O=C(C[C@@H]1CCCN1c1cc(-n2ccnc2)c2ccc(Cl)c(Cl)c2n1)N1CCC(c2nnn[nH]2)C1 (stereo partly shown) [I-536],> 5.70
19,O=C(O)[C@@H]1C[C@@H]2CCC[C@@H]2N1c1cc(-n2ccnc2)c2ccc(Cl)c(Cl)c2n1 [I-515],> 5.70
20,O=C(O)C1(c2ccccc2)CCCN1c1cc(-n2ccnc2)c2ccc(Cl)c(Cl)c2n1 (stereo not shown) [I-457],4.52 to 5.70

# Same assay, conditions: cGAS Inhibition Results IC50, Table 2
row,SMILES,pIC50
1,"CCOP(=O)(O)Cc1cc(-n2ccnc2)c2ccc(Cl)c(Cl)c2n1 [I-252, Ethyl hydrogen (7,8-dichloro-4-(1H-imidazol-1-yl)quinolin-2-yl)methylphosphonate]",4.52 to 5.70

# — patent publication US11873291B2, “Quinoline cGAS antagonist compounds” (ImmuneSensor Therapeutics, Inc., priority 2020, dated 2024)
